Source: patent publication US10301295B2, “Herbicidal compounds” (Syngenta Participations AG, priority 2014, dated 2019)
Read-outs that look alike come from different tables or passages of the source.

What was measured:
Format in all cases: in vivo
[1] = tested on: Alopecurus myosuroides (ALOMY); test: Glasshouse assay for herbicidal activity, pre-/post-emergence (percentage phytotoxicity); conditions: Alopecurus myosuroides, Rate 250 g/ha, 100%=total damage, 0%=no damage
Outline: (§1)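 Visual score (0–100% damage) at 15DAA post-em / 20DAA pre-em. Pots, std soil; treated 1 d (pre) or ~12 d (post) after sowing. 24/18 °C warm spp., 20/16 °C cool spp., 16 h light, 65% RH.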

Avena fatua (AVEFA) = test: as above; conditions: Avena fatua, Rate 250 g/ha, 100%=total damage, 0%=no damage
Outline: as §1

[2] = tested on: Echinochloa crus-galli (ECHCG); test: as above; conditions: Echinochloa crus-galli, Rate 250 g/ha, 100%=total damage, 0%=no damage
Outline: as §1

Lolium perenne (LOLPE) = test: as above; conditions: Lolium perenne, Rate 250 g/ha, 100%=total damage, 0%=no damage
Outline: as §1

wheat = test: Post-emergence herbicidal activity against cereal crops (wheat) +/- safener, crop selectivity; conditions: 100%=total damage to plant, 0%=no damage; for Post-emergence herbicidal activity against wheat (percentage phytotoxicity), +CQC: 250 g/ha, plus safener cloquintocet-mexyl (CQC) applied at 50 g/ha; for percent phytotoxicity (crop damage) to wheat at 250 g/ha: Triticum aestivum, 360 h, without safener, read-out: Post-emergence herbicidal activity against wheat (percentage phytotoxicity), Wheat - CQC
Outline: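 Test plants raised in pots in a glasshouse (24/18 °C warm or 20/16 °C cool species day/night, 16 h light, 65% humidity) and treated post-emergence about 12 days after sowing. Visual percentage phytotoxicity scored 15 days after application (0% = no damage, 100% = total damage).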

[3] = 360 h, post-emergence, visual assessment 15 DAA, read-out: Post-emergence herbicidal activity (percentage phytotoxicity), ALOMY POST
[4] = 480 h, pre-emergence, visual assessment 20 DAA, read-out: Pre-emergence herbicidal activity (percentage phytotoxicity), ALOMY PRE
[5] = post-emergence, 360 h, post-emergence, visual assessment 15 DAA, read-out: Post-emergence herbicidal activity (percentage phytotoxicity), AVEFA POST
[6] = pre-emergence, 480 h, pre-emergence, visual assessment 20 DAA, read-out: Pre-emergence herbicidal activity (percentage phytotoxicity), AVEFA PRE
[7] = post-emergence, 360 h, post-emergence, visual assessment 15 DAA, read-out: Post-emergence herbicidal activity (percentage phytotoxicity), ECHCG POST
[8] = pre-emergence, 480 h, pre-emergence, visual assessment 20 DAA, read-out: Pre-emergence herbicidal activity (percentage phytotoxicity), ECHCG PRE
[9] = post-emergence, 360 h, post-emergence, visual assessment 15 DAA, read-out: Post-emergence herbicidal activity (percentage phytotoxicity), LOLPE POST
[10] = pre-emergence, 480 h, pre-emergence, visual assessment 20 DAA, read-out: Pre-emergence herbicidal activity (percentage phytotoxicity), LOLPE PRE

Row | Compound | pest or weed control at 250 g/ha [1, 3] | pest or weed control at 250 g/ha [1, 4] | pest or weed control at 250 g/ha (Avena fatua (AVEFA); [5]) | pest or weed control at 250 g/ha (Avena fatua (AVEFA); [6]) | pest or weed control at 250 g/ha [2, 7] | pest or weed control at 250 g/ha [2, 8] | pest or weed control at 250 g/ha (Lolium perenne (LOLPE); [9]) | pest or weed control at 250 g/ha (Lolium perenne (LOLPE); [10]) | Post-emergence herbicidal activity against wheat (percentage phytotoxicity), +CQC (wheat) | percent phytotoxicity (crop damage) to wheat at 250 g/ha (wheat)
1 | Cc1cc(C)c(C2C(=O)CC(CCNC(=O)NC(=O)c3ccc(Cl)c(F)c3)C2=O)c(C)c1 (stereo not shown) [Compound A58] | 40% | 0% | 10% | 0% | 80% | 0% | 90% | 0% | 20% | 80%
2 | Cc1cc(C)c(C2C(=O)CC(CCNC(=O)NC(=O)c3ccc(Cl)cc3F)C2=O)c(C)c1 (stereo not shown) [Compound A59] | 90% | 70% | 90% | 30% | 90% | 100% | 100% | 80% | 80% | 90%
3 | Cc1cc(C)c(C2C(=O)CC(CCNC(=O)NC(=O)c3ccccc3C(F)(F)F)C2=O)c(C)c1 (stereo not shown) [Compound A60] | 100% | 70% | 100% | 80% | 80% | 70% | 90% | 80% | 70% | 80%
4 | Cc1cc(C)c(C2C(=O)CC(CCNC(=O)NC(=O)c3ccc(C(F)(F)F)c(F)c3)C2=O)c(C)c1 (stereo not shown) [Compound A61] | 40% | 20% | 0% | 30% | 70% | 30% | 70% | 40% | 40% | 70%
5 | Cc1cc(C)c(C2C(=O)CC(CCNC(=O)NC(=O)c3cc(C(F)(F)F)ccc3Cl)C2=O)c(C)c1 (stereo not shown) [Compound A62] | 90% | 70% | 80% | 30% | 80% | 80% | 80% | 40% | 70% | 80%
6 | Cc1cc(C)c(C2C(=O)CC(CCNC(=O)NC(=O)c3cc(F)ccc3C(F)(F)F)C2=O)c(C)c1 (stereo not shown) [Compound A63] | 100% | 90% | 90% | 40% | 80% | 70% | 90% | 80% | 80% | 80%
7 | Cc1cc(C)c(C2C(=O)CC(CCNC(=O)NC(=O)c3c(F)cc(Cl)cc3F)C2=O)c(C)c1 (stereo not shown) [Compound A64] | 90% | 100% | 90% | 80% | 90% | 80% | 100% | 80% | 80% | 90%
8 | Cc1cc(C)c(C2C(=O)CC(CCNC(=O)NC(=O)c3cc(F)c(Cl)cc3Cl)C2=O)c(C)c1 (stereo not shown) [Compound A65] | 100% | 80% | 90% | 70% | 80% | 70% | 100% | 80% | 40% | 80%
9 | Cc1cc(C)c(C2C(=O)CC(CCNC(=O)NC(=O)c3cccc(C(F)(F)F)c3)C2=O)c(C)c1 (stereo not shown) [Compound A66] | 70% | 20% | 30% | 0% | 60% | 10% | 80% | 40% | 40% | 80%
10 | Cc1cc(C)c(C2C(=O)CC(CCNC(=O)NC(=O)c3ccccc3C#N)C2=O)c(C)c1 (stereo not shown) [Compound A67] |  | 0% |  | 0% |  | 30% |  | 20% | 0% | 0%
11 | Cc1cc(C)c(C2C(=O)CC(CCNC(=O)NC(=O)c3ccc(Cl)c(Cl)c3)C2=O)c(C)c1 (stereo not shown) [Compound A68] | 50% | 0% | 0% | 10% | 70% | 10% | 80% | 30% | 0% | 90%
12 | Cc1cc(C)c(C2C(=O)CC(CCNC(=O)NC(=O)c3ccc(F)cc3C(F)(F)F)C2=O)c(C)c1 (stereo not shown) [Compound A69] | 100% | 80% | 90% | 80% | 70% | 70% | 100% | 80% | 80% | 90%
13 | Cc1cc(C)c(C2C(=O)CC(CCNC(=O)NC(=O)c3ccc(C(F)(F)F)cc3F)C2=O)c(C)c1 (stereo not shown) [Compound A70] | 20% | 50% | 90% | 40% | 90% | 100% | 100% | 60% | 80% | 80%
14 | Cc1cc(C)c(C2C(=O)CC(CCNC(=O)NC(=O)c3ccc(OC(F)(F)F)cc3)C2=O)c(C)c1 (stereo not shown) [Compound A71] | 20% | 30% | 50% | 20% | 80% | 0% | 80% | 40% | 20% | 80%
